Source: paper PMC12586182 (Frontiers in Oncology, 2025)
Like-named read-outs stand apart in the source and are kept apart here.

Assays:
REC-1 = test: Cell viability assay (ATPlite); format: cell-based, human; details: REC-1 cell line; for IC50: 72 hours incubation
Protocol: (§1) Intracellular ATP content was used as an indirect readout of cell number using the ATPlite 1Step bioluminescence assay (Revvity, Groningen, the Netherlands). Cells were seeded in 384-well plates at an optimized density to ensure unrestricted growth and maximal signal at the end of the experiment. After 24 hours of incubation, the starting cell number was determined by adding ATPlite to each well of a control plate and recording luminescence on an Envision multimode reader (Revvity, Waltham, MA, USA) ([4]). […] Vehicle-treated controls were included to determine maximal cell proliferation. […] After incubation for an additional 72 hours, the ATP content was measured in each well using ATPlite. The luminescent signal in inhibitor-treated wells was normalized to vehicle-treated control wells to determine the percentage viability at each concentration. Cell doublings were determined by relating the cell number of vehicle-treated controls to the starting cell number for each cell line. […] The quality of the complete assay was determined by a parallel test with doxorubicin on two cell lines. IC50 values were calculated by fitting a four-parameter logistic model to the percentage viability values using IDBS XLfit5 (IDBS, Guildford, United Kingdom). All curves were visually inspected and submitted to an F-test as implemented in IDBS XLfit5. […] When this dose range was too high in a certain cell line to allow for a reliable determination of the IC50, a new dilution series was prepared using a diluted stock solution and was used to retest the compound on the cell line.

SU-DHL-6 = test: Cell viability assay (ATPlite); format: cell-based, human; details: SU-DHL-6 cell line; for IC50: 72 hours incubation
Protocol: as §1

BTK = target: T1, BTK (Homo sapiens, UniProt Q06187); test: Kinase enzyme activity assay (mobility shift assay, Carna); format: biochemical; details: for Percentage inhibition of kinase enzyme activity: BTK, 1 µmol/L of BTK inhibitor
T1 construct: purchased Carna Biosciences, Inc
T1 sequence (Q06187 whole entry): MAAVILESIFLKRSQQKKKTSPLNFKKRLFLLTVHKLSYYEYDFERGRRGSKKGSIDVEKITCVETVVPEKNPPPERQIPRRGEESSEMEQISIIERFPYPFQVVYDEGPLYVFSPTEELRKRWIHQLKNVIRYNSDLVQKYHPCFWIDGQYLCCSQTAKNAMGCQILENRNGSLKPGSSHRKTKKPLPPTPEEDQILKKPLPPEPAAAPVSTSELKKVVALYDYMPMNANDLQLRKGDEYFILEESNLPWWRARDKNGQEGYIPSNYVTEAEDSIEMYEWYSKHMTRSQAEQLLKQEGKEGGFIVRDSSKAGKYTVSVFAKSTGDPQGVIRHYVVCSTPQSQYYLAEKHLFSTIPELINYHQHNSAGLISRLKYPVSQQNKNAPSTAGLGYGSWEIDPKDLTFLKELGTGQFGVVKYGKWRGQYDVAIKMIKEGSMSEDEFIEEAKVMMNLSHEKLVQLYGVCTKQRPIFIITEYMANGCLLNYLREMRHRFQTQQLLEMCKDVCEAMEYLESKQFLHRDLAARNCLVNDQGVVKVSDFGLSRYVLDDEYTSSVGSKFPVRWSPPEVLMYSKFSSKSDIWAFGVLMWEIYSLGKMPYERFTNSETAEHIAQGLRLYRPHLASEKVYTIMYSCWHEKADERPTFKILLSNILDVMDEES

LYNb = target: T2, LYNb (Homo sapiens, UniProt P07948); test: Kinase panel profiling at 1 µmol/L (mobility shift assay, Carna); format: biochemical; details: 1 µmol/L of BTK inhibitor
T2 construct: purchased Carna Biosciences
T2 sequence (P07948 1-491 isoform P07948-2): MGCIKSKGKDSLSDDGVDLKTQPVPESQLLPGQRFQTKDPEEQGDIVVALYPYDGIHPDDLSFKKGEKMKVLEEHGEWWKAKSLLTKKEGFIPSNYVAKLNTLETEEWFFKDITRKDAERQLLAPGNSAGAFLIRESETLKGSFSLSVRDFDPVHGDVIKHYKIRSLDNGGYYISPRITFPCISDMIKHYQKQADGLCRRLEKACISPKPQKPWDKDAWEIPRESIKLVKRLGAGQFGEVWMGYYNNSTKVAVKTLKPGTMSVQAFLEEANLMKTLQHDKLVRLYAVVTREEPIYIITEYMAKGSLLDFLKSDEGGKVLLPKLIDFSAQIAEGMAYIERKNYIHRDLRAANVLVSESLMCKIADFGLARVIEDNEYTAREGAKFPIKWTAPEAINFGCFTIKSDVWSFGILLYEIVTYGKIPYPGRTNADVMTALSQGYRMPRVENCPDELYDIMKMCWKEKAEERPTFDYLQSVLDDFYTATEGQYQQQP

AKT3 = target: T3, AKT3 (Homo sapiens, UniProt Q9Y243); test: as above; format: biochemical; details: 1 µmol/L of BTK inhibitor
T3 construct: purchased Carna Biosciences

AMPKα2/β1/γ1 = target: T4, AMPKα2/β1/γ1 (Homo sapiens, UniProt P54646); test: as above; format: biochemical; details: 1 µmol/L of BTK inhibitor
T4 construct: purchased Carna Biosciences
T4 sequence (P54646 whole entry): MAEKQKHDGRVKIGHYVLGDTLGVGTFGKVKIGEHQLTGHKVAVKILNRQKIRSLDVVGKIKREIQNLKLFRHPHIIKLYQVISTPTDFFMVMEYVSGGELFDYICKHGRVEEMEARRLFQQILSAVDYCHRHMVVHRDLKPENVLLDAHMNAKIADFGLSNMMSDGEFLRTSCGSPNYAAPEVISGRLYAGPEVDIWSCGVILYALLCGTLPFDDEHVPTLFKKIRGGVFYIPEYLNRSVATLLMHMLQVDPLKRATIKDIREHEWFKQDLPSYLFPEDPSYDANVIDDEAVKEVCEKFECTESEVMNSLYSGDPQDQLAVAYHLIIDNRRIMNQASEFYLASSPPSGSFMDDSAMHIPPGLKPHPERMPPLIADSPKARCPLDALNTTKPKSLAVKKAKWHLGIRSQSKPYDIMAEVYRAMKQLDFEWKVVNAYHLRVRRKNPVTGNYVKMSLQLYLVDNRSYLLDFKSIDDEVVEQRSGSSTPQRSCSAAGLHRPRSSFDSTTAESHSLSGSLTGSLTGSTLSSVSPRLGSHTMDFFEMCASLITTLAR
T4 sequence (Q9Y478 whole entry partner): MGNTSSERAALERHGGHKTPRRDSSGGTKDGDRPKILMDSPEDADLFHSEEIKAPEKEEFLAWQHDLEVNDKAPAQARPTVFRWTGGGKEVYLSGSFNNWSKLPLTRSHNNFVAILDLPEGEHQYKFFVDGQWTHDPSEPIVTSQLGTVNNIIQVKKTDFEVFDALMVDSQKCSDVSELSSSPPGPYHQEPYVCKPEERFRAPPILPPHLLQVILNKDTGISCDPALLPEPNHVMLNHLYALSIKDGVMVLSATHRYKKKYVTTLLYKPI
T4 sequence (P54619 whole entry partner): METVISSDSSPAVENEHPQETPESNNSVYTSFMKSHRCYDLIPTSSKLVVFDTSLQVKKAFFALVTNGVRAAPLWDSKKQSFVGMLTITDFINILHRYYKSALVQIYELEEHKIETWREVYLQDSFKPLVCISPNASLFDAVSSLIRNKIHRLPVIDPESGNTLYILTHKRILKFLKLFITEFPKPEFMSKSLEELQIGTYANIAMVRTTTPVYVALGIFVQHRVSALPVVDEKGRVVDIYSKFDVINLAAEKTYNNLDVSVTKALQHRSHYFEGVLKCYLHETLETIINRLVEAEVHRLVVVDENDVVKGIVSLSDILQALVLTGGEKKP

CK2α2/β = target: T5, CK2α2/β (Homo sapiens, UniProt P19784); test: as above; format: biochemical; details: 1 µmol/L of BTK inhibitor
T5 construct: purchased Carna Biosciences

DYRK2 = target: T6, DYRK2 (Homo sapiens, UniProt Q92630); test: as above; format: biochemical; details: 1 µmol/L of BTK inhibitor
T6 construct: purchased Carna Biosciences
T6 sequence (Q92630 1-601): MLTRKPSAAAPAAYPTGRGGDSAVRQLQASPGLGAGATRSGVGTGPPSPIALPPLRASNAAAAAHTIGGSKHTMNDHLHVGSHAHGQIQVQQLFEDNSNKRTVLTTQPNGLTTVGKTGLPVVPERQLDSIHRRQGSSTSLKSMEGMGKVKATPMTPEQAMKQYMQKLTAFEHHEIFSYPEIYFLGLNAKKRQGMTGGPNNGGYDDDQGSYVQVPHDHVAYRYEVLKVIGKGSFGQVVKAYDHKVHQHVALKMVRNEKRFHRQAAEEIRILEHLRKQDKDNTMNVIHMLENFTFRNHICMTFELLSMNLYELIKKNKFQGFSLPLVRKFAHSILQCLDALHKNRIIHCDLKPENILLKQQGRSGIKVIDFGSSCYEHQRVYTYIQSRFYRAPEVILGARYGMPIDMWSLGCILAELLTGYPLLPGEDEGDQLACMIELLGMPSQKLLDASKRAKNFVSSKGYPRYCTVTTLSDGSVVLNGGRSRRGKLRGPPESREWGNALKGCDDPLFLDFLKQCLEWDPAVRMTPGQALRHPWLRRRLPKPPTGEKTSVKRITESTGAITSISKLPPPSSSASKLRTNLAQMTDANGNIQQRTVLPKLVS

LOK = target: T7, LOK (Homo sapiens, UniProt O94804); test: as above; format: biochemical; details: 1 µmol/L of BTK inhibitor
T7 construct: purchased Carna Biosciences
T7 sequence (O94804 whole entry): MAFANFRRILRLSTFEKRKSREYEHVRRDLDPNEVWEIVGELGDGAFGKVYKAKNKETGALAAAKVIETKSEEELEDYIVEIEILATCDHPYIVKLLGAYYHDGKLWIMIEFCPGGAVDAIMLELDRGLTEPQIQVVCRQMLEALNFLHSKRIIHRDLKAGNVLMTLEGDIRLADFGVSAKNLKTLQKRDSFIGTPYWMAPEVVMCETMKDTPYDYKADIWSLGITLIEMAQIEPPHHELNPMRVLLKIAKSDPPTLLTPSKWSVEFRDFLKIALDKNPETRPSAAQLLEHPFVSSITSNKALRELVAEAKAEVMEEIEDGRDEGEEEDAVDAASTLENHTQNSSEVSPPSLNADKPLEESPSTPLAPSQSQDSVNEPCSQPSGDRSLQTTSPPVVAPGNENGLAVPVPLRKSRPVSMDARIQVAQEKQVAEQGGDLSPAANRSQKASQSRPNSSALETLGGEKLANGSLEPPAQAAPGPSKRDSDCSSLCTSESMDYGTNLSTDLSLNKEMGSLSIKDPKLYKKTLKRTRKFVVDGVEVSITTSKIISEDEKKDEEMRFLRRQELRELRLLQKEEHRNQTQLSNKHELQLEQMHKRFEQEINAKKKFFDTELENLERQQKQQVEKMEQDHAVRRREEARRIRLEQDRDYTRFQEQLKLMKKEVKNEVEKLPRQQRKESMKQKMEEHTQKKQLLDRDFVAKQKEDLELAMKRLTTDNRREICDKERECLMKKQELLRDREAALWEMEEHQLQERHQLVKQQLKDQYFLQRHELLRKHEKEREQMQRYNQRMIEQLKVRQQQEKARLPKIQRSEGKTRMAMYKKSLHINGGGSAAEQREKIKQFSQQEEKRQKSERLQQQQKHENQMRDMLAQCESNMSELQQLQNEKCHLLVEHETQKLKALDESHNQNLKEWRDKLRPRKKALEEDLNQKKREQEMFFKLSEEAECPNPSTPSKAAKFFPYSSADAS

PBK = target: T8, PBK (Homo sapiens, UniProt Q96KB5); test: as above; format: biochemical; details: 1 µmol/L of BTK inhibitor
T8 construct: purchased Carna Biosciences
T8 sequence (Q96KB5 1-322): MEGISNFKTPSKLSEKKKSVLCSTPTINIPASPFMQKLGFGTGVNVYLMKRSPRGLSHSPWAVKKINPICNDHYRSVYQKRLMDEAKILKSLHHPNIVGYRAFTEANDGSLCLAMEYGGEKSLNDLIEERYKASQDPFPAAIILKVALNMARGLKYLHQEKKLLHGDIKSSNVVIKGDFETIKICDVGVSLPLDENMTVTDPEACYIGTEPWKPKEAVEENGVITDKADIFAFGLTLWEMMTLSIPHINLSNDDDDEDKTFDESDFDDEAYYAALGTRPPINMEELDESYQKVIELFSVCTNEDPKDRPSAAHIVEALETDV

PKACα = target: T9, PKACα (Homo sapiens, UniProt P17612); test: as above; format: biochemical; details: 1 µmol/L of BTK inhibitor
T9 construct: purchased Carna Biosciences

PKACγ = target: T10, PKACγ (Homo sapiens, UniProt P22612); test: as above; format: biochemical; details: 1 µmol/L of BTK inhibitor
T10 construct: purchased Carna Biosciences
T10 sequence (P22612 whole entry): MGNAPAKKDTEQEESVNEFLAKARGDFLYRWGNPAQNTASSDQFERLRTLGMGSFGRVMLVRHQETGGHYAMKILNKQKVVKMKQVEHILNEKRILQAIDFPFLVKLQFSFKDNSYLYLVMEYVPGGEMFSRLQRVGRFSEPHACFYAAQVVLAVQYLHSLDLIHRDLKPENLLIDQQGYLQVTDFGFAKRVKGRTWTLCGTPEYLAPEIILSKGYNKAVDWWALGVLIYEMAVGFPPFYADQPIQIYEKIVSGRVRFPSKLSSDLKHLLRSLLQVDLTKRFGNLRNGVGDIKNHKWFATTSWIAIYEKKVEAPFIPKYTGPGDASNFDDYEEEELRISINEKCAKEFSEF

PKCη = target: T11, PKCη (Homo sapiens, UniProt P24723); test: as above; format: biochemical; details: 1 µmol/L of BTK inhibitor
T11 construct: purchased Carna Biosciences
T11 sequence (P24723 whole entry): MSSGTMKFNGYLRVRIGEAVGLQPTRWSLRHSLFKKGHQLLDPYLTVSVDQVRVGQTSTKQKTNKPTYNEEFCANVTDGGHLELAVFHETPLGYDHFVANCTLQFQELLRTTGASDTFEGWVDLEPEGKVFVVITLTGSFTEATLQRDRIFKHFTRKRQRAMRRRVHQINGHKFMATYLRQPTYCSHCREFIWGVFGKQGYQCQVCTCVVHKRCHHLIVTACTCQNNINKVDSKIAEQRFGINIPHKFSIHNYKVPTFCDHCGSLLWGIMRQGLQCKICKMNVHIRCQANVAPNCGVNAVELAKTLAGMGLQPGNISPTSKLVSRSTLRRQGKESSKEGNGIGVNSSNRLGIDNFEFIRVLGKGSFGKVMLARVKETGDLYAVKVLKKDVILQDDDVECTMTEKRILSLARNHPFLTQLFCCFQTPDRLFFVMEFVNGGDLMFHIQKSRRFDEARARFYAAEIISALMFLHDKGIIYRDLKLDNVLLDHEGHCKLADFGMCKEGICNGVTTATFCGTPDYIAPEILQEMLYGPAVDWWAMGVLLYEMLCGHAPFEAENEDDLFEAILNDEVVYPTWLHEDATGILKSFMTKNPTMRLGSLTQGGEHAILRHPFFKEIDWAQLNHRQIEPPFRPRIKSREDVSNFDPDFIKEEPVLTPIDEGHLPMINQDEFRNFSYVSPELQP

TSSK3 = target: T12, TSSK3 (Homo sapiens, UniProt Q96PN8); test: as above; format: biochemical; details: 1 µmol/L of BTK inhibitor
T12 construct: purchased Carna Biosciences
T12 sequence (Q96PN8 1-268): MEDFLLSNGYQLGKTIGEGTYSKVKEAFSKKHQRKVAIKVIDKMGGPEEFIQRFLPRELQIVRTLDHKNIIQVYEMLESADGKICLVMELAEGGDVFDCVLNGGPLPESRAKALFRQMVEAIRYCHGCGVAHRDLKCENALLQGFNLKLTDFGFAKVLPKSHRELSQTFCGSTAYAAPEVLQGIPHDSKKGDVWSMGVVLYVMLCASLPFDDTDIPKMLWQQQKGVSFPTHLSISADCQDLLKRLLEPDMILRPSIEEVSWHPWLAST

SPHK1 = target: T13, SPHK1 (Homo sapiens, UniProt Q9NYA1); test: as above; format: biochemical; details: 1 µmol/L of BTK inhibitor
T13 construct: purchased Carna Biosciences

ERK2 = ERK2 (Homo sapiens, UniProt P28482); test: Kinase enzyme activity assay (mobility shift assay, Carna); details: for Percentage inhibition of kinase enzyme activity: Erk2, 1 µmol/L of BTK inhibitor
ERK2, sequence (P28482 whole entry): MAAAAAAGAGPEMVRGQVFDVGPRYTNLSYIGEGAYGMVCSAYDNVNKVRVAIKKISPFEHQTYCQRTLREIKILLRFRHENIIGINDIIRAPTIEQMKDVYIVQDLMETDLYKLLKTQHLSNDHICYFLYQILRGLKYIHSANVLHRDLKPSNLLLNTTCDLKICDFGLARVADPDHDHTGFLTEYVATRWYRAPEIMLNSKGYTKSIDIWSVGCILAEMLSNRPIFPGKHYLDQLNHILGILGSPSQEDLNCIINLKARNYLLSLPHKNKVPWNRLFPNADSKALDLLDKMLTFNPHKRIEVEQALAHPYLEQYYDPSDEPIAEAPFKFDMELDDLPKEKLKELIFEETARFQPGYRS

BRK = BRK (Homo sapiens, UniProt Q13882); test: Kinase panel profiling at 1 µmol/L (mobility shift assay, Carna); details: for Percentage inhibition of kinase enzyme activity: BRK, 1 µmol/L of BTK inhibitor
[1] = Homo sapiens, Rec1, read-out: IC50

SMILES	IC50 (REC-1; [1])	IC50 (SU-DHL-6; Homo sapiens, read-out: IC50)	Percentage inhibition of kinase enzyme activity (BTK)	Percentage inhibition of kinase enzyme activity (LYNb)	Percentage inhibition of kinase enzyme activity (AKT3)	Percentage inhibition of kinase enzyme activity (AMPKα2/β1/γ1)	Percentage inhibition of kinase enzyme activity (CK2α2/β)	Percentage inhibition of kinase enzyme activity (DYRK2)	Percentage inhibition of kinase enzyme activity (LOK)	Percentage inhibition of kinase enzyme activity (PBK)	Percentage inhibition of kinase enzyme activity (PKACα)	Percentage inhibition of kinase enzyme activity (PKACγ)	Percentage inhibition of kinase enzyme activity (PKCη)	Percentage inhibition of kinase enzyme activity (TSSK3)	Percentage inhibition of kinase enzyme activity (SPHK1)	Percentage inhibition of kinase enzyme activity (ERK2)	Percentage inhibition of kinase enzyme activity (BRK)	IC50 (REC-1; Homo sapiens, Rec1, 72 h)	IC50 (SU-DHL-6; Homo sapiens, SU-DHL-6, 72 h)	also measured
CC#CC(=O)N1CCC[C@H]1c1nc(-c2ccc(C(=O)Nc3ccccn3)cc2)c2c(N)nccn12 [acalabrutinib]	21 nM	3.1 nM	94.95%	-1.97%	-4.92%	3.50%	9.56%	-16.01%	3.37%	-15.29%	-5.14%	1.68%	-3.18%	-7.85%	-3.15%	-2.02%	51.05%	–	–	–
C=CC(=O)N1CCC[C@@H](n2nc(-c3ccc(Oc4ccccc4)cc3)c3c(N)ncnc32)C1 [ibrutinib]	0.51 nM	12 nM	–	100.13%	-2.25%	10.21%	-7.37%	-1.83%	24.15%	-9.30%	-10.78%	4.90%	3.27%	-3.87%	-3.38%	-6.90%	102.78%	–	–	–
O=C(c1ccc(Oc2ccccc2)cc1Cl)c1c[nH]c2ncnc(N[C@@H]3CC[C@@H](CO)OC3)c12 [nemtabrutinib]	–	–	97.07%	66.12%	9.45%	40.46%	-3.55%	-2.66%	83.97%	-7.49%	0.95%	11.12%	5.25%	2.56%	-5.57%	67.16%	–	2000 nM	600 nM	IC50 (REC-1): 2040 nM; IC50 (SU-DHL-6): 577 nM; IC50 (ERK2): 505 nM; Inhibition of ERK2 (ERK2): did not inhibit
C=CC(=O)N1CCC([C@@H]2CCNc3c(C(N)=O)c(-c4ccc(Oc5ccccc5)cc4)nn32)CC1 [zanubrutinib]	–	–	–	–	–	–	–	–	–	–	–	–	–	–	–	–	98.97%	3.1 nM	3.8 nM	–
COc1ccc(F)cc1C(=O)NCc1ccc(-c2nn([C@@H](C)C(F)(F)F)c(N)c2C(N)=O)cc1 [pirtobrutinib]	38 nM	13 nM	98.09%	26.06%	-2.20%	6.23%	4.12%	-4.14%	-1.51%	-3.79%	-26.62%	1.36%	3.32%	-1.40%	-10.15%	6.64%	89.81%	–	–	IC50 fold change of nemtabrutinib with the inhibitor (REC-1): 53; IC50 fold change of nemtabrutinib with the inhibitor (SU-DHL-6): 43; IC50 (BTK; K M,bin ATP): 2.3 nM; inhibition at 1 µM (BRK; read-out: Inhibition of BRK): > 75%
